# Source: ChEMBL document CHEMBL3886561, “Pyridine-and pyrazine derivatives” (2016)
# Tests used:
# [1] = molecular target: T1, Serine/threonine-protein kinase TBK1 (Homo sapiens, UniProt Q9UHD2); assay: TBK1 : The kinase assay is performed as 384-well Flashplate assay (for e.g. Topcount measurement. 0.6 nM TANK binding kinase (TBK1), 800 nM biotinylated MELK-derived peptide (Biotin-Ah-Ah-[…]) SEQ ID NO: 2 and 10 uM ATP (spiked with 0.25 uCi 33P-ATP/well) are incubated in a total volume of 50 ul (10 mM MOPS, 10 mM Mg-acetat, 0.1 mM EGTA, 1 mM DTT, 0.02% Brij35, 0.1% BSA, pH 7.5) with or without test compound for 120 Min at 30° C. The reaction is stopped with 25 ul 200 mM EDTA. After 30 Min at room temperature the liquid is removed and each well washed thrice with 100 ul 0.9% sodium chloride solution.
# T1 sequence (Q9UHD2 whole entry): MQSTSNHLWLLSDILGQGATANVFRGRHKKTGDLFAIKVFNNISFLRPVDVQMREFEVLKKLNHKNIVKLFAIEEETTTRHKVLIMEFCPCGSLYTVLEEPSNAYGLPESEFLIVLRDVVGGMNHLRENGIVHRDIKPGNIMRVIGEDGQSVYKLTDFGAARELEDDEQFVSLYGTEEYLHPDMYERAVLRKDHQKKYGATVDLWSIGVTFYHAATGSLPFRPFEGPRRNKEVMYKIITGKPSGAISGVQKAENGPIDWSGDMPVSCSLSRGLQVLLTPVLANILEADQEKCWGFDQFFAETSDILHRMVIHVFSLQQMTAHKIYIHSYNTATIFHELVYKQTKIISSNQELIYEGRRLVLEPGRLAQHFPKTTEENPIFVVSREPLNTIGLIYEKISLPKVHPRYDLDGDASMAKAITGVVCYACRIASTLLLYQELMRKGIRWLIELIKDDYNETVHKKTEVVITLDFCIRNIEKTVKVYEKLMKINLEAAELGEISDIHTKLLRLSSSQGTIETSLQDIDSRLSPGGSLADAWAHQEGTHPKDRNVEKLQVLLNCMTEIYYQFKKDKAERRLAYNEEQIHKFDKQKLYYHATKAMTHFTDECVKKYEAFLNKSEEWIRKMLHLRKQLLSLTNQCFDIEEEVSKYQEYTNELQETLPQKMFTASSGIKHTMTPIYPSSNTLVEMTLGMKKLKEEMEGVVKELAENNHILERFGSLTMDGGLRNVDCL
# [2] = molecular target: T2, Inhibitor of nuclear factor kappa-B kinase subunit epsilon (Homo sapiens, UniProt Q14164); assay: IKKepsilon Flashplate Assay: The kinase assay is performed either as 384-well Flashplate assay (for e.g. Topcount measurement). 1 nM IKKepsilon, 800 nM biotinylated IkappaBalpha(19-42) peptide (Biotin-C6-C6-[…]) SEQ ID NO: 1 and 10 uM ATP (spiked with 0.3 uCi 33P-ATP/well) are incubated in a total volume of 50 ul (10 mM MOPS, 10 mM Mg-acetat, 0.1 mM EGTA, 1 mM Dithiothreitol,0.02% Brij35, 0.1% BSA, 0.1% BioStab, pH 7.5) with or without test compound for 2 hours at 30° C. The reaction is stopped with 25 ul 200 mM EDTA. After 30 Min at room temperature the liquid is removed and each well washed thrice with 100 ul 0.9% sodium chloride solution. Non-specific reaction is determined in presence of 3 uM MSC2119074 (BX-795). Radioactivity is measured with Topcount (PerkinElmer).
# T2 sequence (Q14164 whole entry): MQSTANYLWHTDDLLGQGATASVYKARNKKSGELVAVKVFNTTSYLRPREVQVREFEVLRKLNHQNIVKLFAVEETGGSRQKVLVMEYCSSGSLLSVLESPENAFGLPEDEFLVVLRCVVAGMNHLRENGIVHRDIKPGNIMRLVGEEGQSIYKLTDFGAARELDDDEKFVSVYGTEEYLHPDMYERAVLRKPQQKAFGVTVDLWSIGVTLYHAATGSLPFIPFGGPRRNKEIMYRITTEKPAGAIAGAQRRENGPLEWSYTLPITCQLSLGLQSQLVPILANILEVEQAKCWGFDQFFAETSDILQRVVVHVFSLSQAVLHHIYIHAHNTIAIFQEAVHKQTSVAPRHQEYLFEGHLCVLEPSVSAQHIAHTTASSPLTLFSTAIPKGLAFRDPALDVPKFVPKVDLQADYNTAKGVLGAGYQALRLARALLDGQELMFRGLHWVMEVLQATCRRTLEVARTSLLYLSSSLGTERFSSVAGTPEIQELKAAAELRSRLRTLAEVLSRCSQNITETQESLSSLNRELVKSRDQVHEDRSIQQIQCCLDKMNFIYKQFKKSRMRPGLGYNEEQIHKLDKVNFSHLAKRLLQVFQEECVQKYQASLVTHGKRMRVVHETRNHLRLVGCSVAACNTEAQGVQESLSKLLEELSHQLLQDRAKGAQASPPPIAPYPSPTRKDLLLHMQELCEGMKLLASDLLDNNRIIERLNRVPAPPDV
smiles,measurement,setting,value
Nc1ncc(-c2cccc(C(=O)O)c2)cc1C(=O)Nc1ccncc1,IC50,[1],1100 nM
same,IC50,[2],3200 nM
